The supplement of paper PMC10307832

Legend:
Assay in all cases: relative viability (nuclei count vs DMSO), 5 days (fraction); higher = more cells survive
[1] = test system: LCLC-97TM1
Outline: (§1)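 Lung cancer cell lines, seeded in 1536-well plates, were treated the following day by pin tool with a single drug or with five library-drug doses (not always all listed) in √10 steps on top of a fixed anchor-drug dose. Cells were fixed and nuclei stained in one step after 5 days, and nuclei were counted. Relative viability is the nuclei count for treated wells divided by that for vehicle wells, reported as medians of duplicate plates.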

[2] = test system: RERF-LC-KJ
Outline: as §1

[3] = test system: PC-14
Outline: as §1

[4] = test system: HCC-15
Outline: as §1

[5] = test system: NCI-H322M
Outline: as §1

[6] = test system: NCI-H1355
Outline: as §1

[7] = test system: NCI-H2342
Outline: as §1

[8] = test system: NCI-H2405
Outline: as §1

[9] = test system: LK-2
Outline: as §1

[10] = test system: CAL-12T
Outline: as §1

[11] = test system: HCC-827
Outline: as §1

[12] = test system: NCI-H1755
Outline: as §1

[13] = test system: NCI-H1734
Outline: as §1

[14] = test system: EKVX
Outline: as §1

[15] = test system: PC-3 [JPC-3]
Outline: as §1

[16] = test system: H3255
Outline: as §1

[17] = test system: NCI-H1975
Outline: as §1

## O=c1cc(N2CCOCC2)oc2c(-c3cccc4c3sc3ccccc34)cccc12 + NC(=O)Nc1cc(-c2cccc(F)c2)sc1C(=O)N[C@H]1CCCNC1 [AZD7762] (partner 0.2 µM)
[1]; first compound 0.01 µM
  relative viability: 0.215
[1]; first compound 0.03162 µM
  relative viability: 0.353
[1]; first compound 0.1 µM
  relative viability: 0.0724
[1]; first compound 0.3162 µM
  relative viability: 0.349
[1]; first compound 1 µM
  relative viability: 0.22
[2]; first compound 0.01 µM
  relative viability: 0.595
[2]; first compound 0.03162 µM
  relative viability: 0.951
[2]; first compound 0.1 µM
  relative viability: 1.18
[2]; first compound 0.3162 µM
  relative viability: 0.994
[2]; first compound 1 µM
  relative viability: 1.03
[3]; first compound 0.01 µM
  relative viability: 0.306
[3]; first compound 0.03162 µM
  relative viability: 0.322
[3]; first compound 0.1 µM
  relative viability: 0.116
[3]; first compound 0.3162 µM
  relative viability: 0.516
[3]; first compound 1 µM
  relative viability: 0.27
[4]; first compound 0.01 µM
  relative viability: 1.23
[4]; first compound 0.03162 µM
  relative viability: 1.46
[4]; first compound 0.1 µM
  relative viability: 1.3
[4]; first compound 0.3162 µM
  relative viability: 1.26
[4]; first compound 1 µM
  relative viability: 1.54
[5]; first compound 0.01 µM
  relative viability: 0.578
[5]; first compound 0.03162 µM
  relative viability: 0.589
[5]; first compound 0.3162 µM
  relative viability: 0.595
[5]; first compound 1 µM
  relative viability: 0.581
[6]; first compound 0.01 µM
  relative viability: 0.726
[6]; first compound 0.03162 µM
  relative viability: 0.676
[6]; first compound 0.1 µM
  relative viability: 0.255
[6]; first compound 0.3162 µM
  relative viability: 0.903
[6]; first compound 1 µM
  relative viability: 0.72
[7]; first compound 0.01 µM
  relative viability: 0.566
[7]; first compound 0.03162 µM
  relative viability: 0.483
[7]; first compound 0.1 µM
  relative viability: 0.366
[7]; first compound 0.3162 µM
  relative viability: 0.45
[7]; first compound 1 µM
  relative viability: 0.433
[8]; first compound 0.01 µM
  relative viability: 0.7
[8]; first compound 0.03162 µM
  relative viability: 0.727
[8]; first compound 0.1 µM
  relative viability: 0.552
[8]; first compound 0.3162 µM
  relative viability: 0.787
[8]; first compound 1 µM
  relative viability: 0.827
[9]; first compound 0.01 µM
  relative viability: 0.468
[9]; first compound 0.03162 µM
  relative viability: 0.369
[9]; first compound 0.1 µM
  relative viability: 0.262
[9]; first compound 0.3162 µM
  relative viability: 0.369
[9]; first compound 1 µM
  relative viability: 0.354
[10]; first compound 0.01 µM
  relative viability: 0.58
[10]; first compound 0.03162 µM
  relative viability: 0.541
[10]; first compound 0.1 µM
  relative viability: 0.852
[10]; first compound 0.3162 µM
  relative viability: 0.676
[10]; first compound 1 µM
  relative viability: 0.498
[11]; first compound 0.01 µM
  relative viability: 0.26
[11]; first compound 0.03162 µM
  relative viability: 0.179
[11]; first compound 0.1 µM
  relative viability: 0.133
[11]; first compound 0.3162 µM
  relative viability: 0.184
[11]; first compound 1 µM
  relative viability: 0.261
[12]; first compound 0.01 µM
  relative viability: 0.473
[12]; first compound 0.03162 µM
  relative viability: 0.417
[12]; first compound 0.1 µM
  relative viability: 0.427
[12]; first compound 0.3162 µM
  relative viability: 0.434
[12]; first compound 1 µM
  relative viability: 0.487
[13]; first compound 0.01 µM
  relative viability: 0.604
[13]; first compound 0.03162 µM
  relative viability: 0.568
[13]; first compound 0.1 µM
  relative viability: 0.112
[13]; first compound 0.3162 µM
  relative viability: 0.596
[13]; first compound 1 µM
  relative viability: 0.494
[14]; first compound 0.01 µM
  relative viability: 0.654
[14]; first compound 0.03162 µM
  relative viability: 0.757
[14]; first compound 0.1 µM
  relative viability: 0.445
[14]; first compound 0.3162 µM
  relative viability: 0.878
[14]; first compound 1 µM
  relative viability: 0.695
[15]; first compound 0.01 µM
  relative viability: 0.65
[15]; first compound 0.03162 µM
  relative viability: 0.855
[15]; first compound 0.1 µM
  relative viability: 0.87
[15]; first compound 0.3162 µM
  relative viability: 0.954
[15]; first compound 1 µM
  relative viability: 0.834
[16]; first compound 0.01 µM
  relative viability: 0.901
[16]; first compound 0.03162 µM
  relative viability: 0.933
[16]; first compound 0.1 µM
  relative viability: 0.845
[16]; first compound 0.3162 µM
  relative viability: 0.822
[16]; first compound 1 µM
  relative viability: 0.852
[17]; first compound 0.01 µM
  relative viability: 0.676
[17]; first compound 0.03162 µM
  relative viability: 0.735
[17]; first compound 0.1 µM
  relative viability: 0.554
[17]; first compound 0.3162 µM
  relative viability: 0.808
[17]; first compound 1 µM
  relative viability: 0.553
